Results from the supplement of paper PMC10307832.

What was measured:
Assay in all cases: relative viability (nuclei count vs DMSO), 5 days (fraction); higher = more cells survive
Quizartinib + Trametinib = compound: CC(C)(C)c1cc(NC(=O)Nc2ccc(-c3cn4c(n3)sc3cc(OCCN5CCOCC5)ccc34)cc2)no1 [Quizartinib] + CC(=O)Nc1cccc(-n2c(=O)n(C3CC3)c(=O)c3c(Nc4ccc(I)cc4F)n(C)c(=O)c(C)c32)c1 [Trametinib] (partner 0.02 µM)
Summary of the method: (§1)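 A single step with final 0.05% Triton X-100, 1% formaldehyde and 1 ug/ml Hoechst fixed the cells and stained nuclei 5 days after treatment. Lung cancer cell lines in 1536-well plates had been treated by pin tool the day after seeding with one drug alone or a fixed anchor-drug dose plus five library-drug doses (not always all listed) in √10 steps, and nuclei were counted on 4× images. Relative viability is the ratio of nuclei in treated wells to nuclei in vehicle wells, taken as the median of duplicate plates.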

Quizartinib + Linsitinib = compound: CC(C)(C)c1cc(NC(=O)Nc2ccc(-c3cn4c(n3)sc3cc(OCCN5CCOCC5)ccc34)cc2)no1 [Quizartinib] + C[C@]1(O)C[C@@H](c2nc(-c3ccc4ccc(-c5ccccc5)nc4c3)c3c(N)nccn32)C1 [Linsitinib] (partner 1 µM)
Summary of the method: as §1

[1] = compound: CC(C)(C)c1cc(NC(=O)Nc2ccc(-c3cn4c(n3)sc3cc(OCCN5CCOCC5)ccc34)cc2)no1 [Quizartinib] + CC(=O)c1c(C)c2cnc(Nc3ccc(N4CCNCC4)cn3)nc2n(C2CCCC2)c1=O [Palbociclib] (partner 0.5 µM)
Summary of the method: as §1

Quizartinib + Navitoclax = compound: CC(C)(C)c1cc(NC(=O)Nc2ccc(-c3cn4c(n3)sc3cc(OCCN5CCOCC5)ccc34)cc2)no1 [Quizartinib] + CC1(C)CCC(c2ccc(Cl)cc2)=C(CN2CCN(c3ccc(C(=O)NS(=O)(=O)c4ccc(N[C@H](CCN5CCOCC5)CSc5ccccc5)c(S(=O)(=O)C(F)(F)F)c4)cc3)CC2)C1 [Navitoclax] (partner 0.5 µM)
Summary of the method: as §1

Cell Line | relative viability (Quizartinib + Trametinib; first compound 0.001 µM) | relative viability (Quizartinib + Trametinib; first compound 0.003162 µM) | relative viability (Quizartinib + Trametinib; first compound 0.01 µM) | relative viability (Quizartinib + Trametinib; first compound 0.03162 µM) | relative viability (Quizartinib + Trametinib; first compound 0.1 µM) | relative viability (Quizartinib + Linsitinib; first compound 0.001 µM) | relative viability (Quizartinib + Linsitinib; first compound 0.003162 µM) | relative viability (Quizartinib + Linsitinib; first compound 0.01 µM) | relative viability (Quizartinib + Linsitinib; first compound 0.03162 µM) | relative viability (Quizartinib + Linsitinib; first compound 0.1 µM) | relative viability ([1]; first compound 0.001 µM) | relative viability ([1]; first compound 0.003162 µM) | relative viability ([1]; first compound 0.01 µM) | relative viability ([1]; first compound 0.03162 µM) | relative viability ([1]; first compound 0.1 µM) | relative viability (Quizartinib + Navitoclax; first compound 0.001 µM) | relative viability (Quizartinib + Navitoclax; first compound 0.003162 µM) | relative viability (Quizartinib + Navitoclax; first compound 0.01 µM) | relative viability (Quizartinib + Navitoclax; first compound 0.03162 µM) | relative viability (Quizartinib + Navitoclax; first compound 0.1 µM)
HCC-366 | 0.314 | 0.383 | 0.294 | 0.326 | 0.346 | 0.501 | 0.695 | 0.656 | 0.615 | 0.554 | 0.318 | 0.384 | 0.374 | 0.382 | 0.436 | 0.799 | 1.01 | 0.957 | 1.06 | 0.903
HCC-827 | 0.535 | 0.531 | – | 0.509 | 0.572 | 0.99 | 0.924 | 1.05 | 0.962 | 0.994 | 0.515 | 0.471 | – | 0.65 | 0.471 | 0.987 | 1.03 | 1.05 | 0.957 | 1.13
HOP-62 | 0.33 | 0.367 | 0.399 | 0.383 | 0.304 | 1.02 | 0.933 | 0.822 | 0.913 | 1.07 | 0.438 | 0.357 | 0.526 | 0.459 | 0.349 | 1 | 0.888 | 1.16 | 1.01 | 1.1
IA-LM | – | – | – | – | – | 0.518 | 0.657 | 0.652 | 0.724 | 0.679 | – | – | – | – | – | 0.836 | 0.908 | 0.776 | 0.836 | 0.718
LC-2-ad | 0.809 | 0.92 | 0.899 | 0.883 | 0.624 | 0.77 | 0.782 | 0.909 | 0.76 | 0.605 | 0.4 | 0.518 | 0.528 | 0.508 | 0.461 | 0.317 | 0.446 | 0.518 | 0.453 | 0.394
LCLC-97TM1 | 0.158 | 0.186 | 0.191 | 0.216 | 0.184 | – | 0.148 | 0.185 | 0.174 | 0.21 | 0.22 | 0.226 | 0.219 | 0.241 | 0.236 | – | 0.669 | 0.489 | 0.355 | 0.413
LCLC-103H | 0.658 | 0.645 | 0.664 | 0.712 | 0.694 | 0.946 | 1.05 | 1.06 | 1.2 | 0.882 | 0.38 | 0.506 | 0.482 | 0.513 | 0.558 | – | – | – | – | –
LK-2 | 0.796 | 0.671 | 0.801 | 0.765 | 0.789 | 0.479 | 0.617 | 0.621 | 0.523 | 0.521 | 0.734 | 0.621 | 0.853 | 0.599 | 0.69 | 0.827 | 0.803 | 1.09 | 0.77 | 0.861
LOU-NH91 | 0.425 | 0.756 | 0.817 | 0.786 | 0.826 | 0.899 | 0.954 | 0.996 | 0.825 | 1.11 | 0.59 | 0.506 | 0.547 | 0.577 | 0.567 | 0.732 | 0.766 | 0.808 | 0.562 | 0.832
NCI-H358 | 0.146 | 0.146 | 0.11 | – | 0.129 | 0.592 | 0.688 | 0.768 | – | 0.698 | 0.131 | 0.117 | 0.134 | – | 0.138 | – | – | – | – | –
NCI-H522 | 0.688 | 0.741 | 0.796 | 0.53 | 0.727 | – | – | – | – | – | 0.898 | 0.995 | 1.01 | 1.34 | 0.977 | – | – | – | – | –
NCI-H596 | 0.794 | 0.695 | 0.805 | 0.77 | 0.8 | 1.06 | 0.985 | 1.06 | 1.12 | 1.03 | – | – | – | – | – | 0.931 | 0.885 | 0.985 | 0.883 | 0.864
NCI-H650 | 0.94 | 0.938 | 0.96 | 0.923 | 1.06 | 0.807 | 0.787 | 0.798 | 0.694 | 1.15 | 0.355 | 0.309 | 0.361 | 0.336 | 0.355 | – | – | – | – | –
NCI-H661 | 0.575 | 0.533 | 0.554 | 0.552 | 0.525 | 0.564 | 0.544 | 0.433 | 0.58 | 0.737 | 0.369 | 0.348 | 0.391 | 0.384 | 0.339 | – | – | – | – | –
NCI-H1299 | – | – | – | – | – | 0.952 | 0.95 | 0.987 | 1.02 | 1.01 | – | – | – | – | – | – | 1.03 | 1.02 | 1.01 | 1.04
NCI-H1563 | – | – | – | – | – | 1.01 | 1.04 | 1.17 | – | 0.972 | – | – | – | – | – | – | – | – | – | –
NCI-H1648 | – | 0.401 | – | 0.581 | 0.486 | – | – | – | – | – | – | 0.118 | – | 0.277 | 0.239 | – | – | – | – | –
NCI-H1650 | 0.608 | 0.662 | 0.556 | – | 0.564 | – | – | – | – | – | 0.386 | 0.329 | 0.345 | – | 0.321 | 0.928 | 1.25 | 1.35 | – | 1.24
NCI-H1703 | – | – | – | – | – | 0.832 | 0.456 | 0.165 | 0.162 | 0.231 | – | – | – | – | – | 0.978 | 0.474 | 0.234 | 0.214 | 0.296
NCI-H2170 | 0.868 | 0.907 | 0.92 | 1.01 | 0.947 | – | – | – | – | – | 0.385 | 0.365 | 0.392 | 0.367 | 0.358 | 0.765 | 0.627 | 0.715 | 0.573 | 0.665
NCI-H2342 | 0.799 | 0.83 | 0.884 | 0.9 | 0.764 | – | – | – | – | – | 0.482 | 0.538 | 0.483 | 0.615 | 0.462 | – | – | – | – | –
SW 900 | 0.769 | 0.943 | 0.843 | 0.899 | 0.803 | – | – | – | – | – | 0.507 | 0.547 | 0.63 | 0.541 | 0.558 | – | – | – | – | –
